Measured values taken from US8063048B2, “Acetylenyl-pyrazolo-pyrimidine derivatives” (Hoffmann-La Roche Inc., priority 2005, dated 2011).

Row | Compound | melting point [°C]
1 | NS(=O)(=O)c1cnc(C#Cc2cnn3c(C(F)(F)F)cc(-c4cccc(C(F)(F)F)c4)nc23)s1 [Example 105, 2-[7-Trifluoromethyl-5-(3-trifluoromethyl-phenyl)-pyrazolo[1,5-a]pyrimidin-3-ylethynyl]-thiazole-5-sulfonic acid amide] | 251
2 | Cc1cc(-c2cc(C(F)(F)F)n3ncc(C#Cc4ncc(S(=O)(=O)NC(C)(C)CO)s4)c3n2)ccc1Cl [Example 106, 2-[5-(4-Chloro-3-methyl-phenyl)-7-trifluoromethyl-pyrazolo[1,5-a]pyrimidin-3-ylethynyl]-thiazole-5-sulfonic acid (2-hydroxy-1,1-dimethyl-ethyl)-amide] | 217
3 | CC(C)(CO)NS(=O)(=O)c1cccc(C#Cc2cnn3c(C(F)(F)F)cc(-c4cccc(C(F)(F)F)c4)nc23)c1 [Example 107, N-(2-Hydroxy-1,1-dimethyl-ethyl)-3-[7-trifluoromethyl-5-(3-trifluoromethyl-phenyl)-pyrazolo[1,5-a]pyrimidin-3-ylethynyl]-benzenesulfonamide] | 132
4 | Cc1cc(-c2cc(C(F)(F)F)n3ncc(C#Cc4ccc(S(N)(=O)=O)cc4)c3n2)ccc1Cl [Example 110, 4-[5-(4-Chloro-3-methyl-phenyl)-7-trifluoromethyl-pyrazolo[1,5-a]pyrimidin-3-ylethynyl]-benzenesulfonamide] | 275
5 | Cc1cc(-c2cc(C(F)(F)F)n3ncc(C#Cc4cc(S(N)(=O)=O)c(F)cc4F)c3n2)ccc1Cl [Example 111, 5-[5-(4-Chloro-3-methyl-phenyl)-7-trifluoromethyl-pyrazolo[1,5-a]pyrimidin-3-ylethynyl]-2,4-difluoro-benzenesulfonamide] | 294
6 | Cc1cc(-c2cc(C(F)(F)F)n3ncc(C#Cc4cccc(S(N)(=O)=O)c4)c3n2)ccc1Cl [Example 112, 3-[5-(4-Chloro-3-methyl-phenyl)-7-trifluoromethyl-pyrazolo[1,5-a]pyrimidin-3-ylethynyl]-benzenesulfonamide] | 234
7 | Cc1cc(-c2cc(C(F)(F)F)n3ncc(C#Cc4ccc(S(N)(=O)=O)s4)c3n2)ccc1Cl [Example 114, 5-[5-(4-Chloro-3-methyl-phenyl)-7-trifluoromethyl-pyrazolo[1,5-a]pyrimidin-3-ylethynyl]-thiophene-2-sulfonic acid amide] | 216
8 | Cc1cc(-c2cc(C(F)(F)F)n3ncc(C#Cc4ccc(S(=O)(=O)NC(C)(C)C)s4)c3n2)ccc1Cl [Example 115, 5-[5-(4-Chloro-3-methyl-phenyl)-7-trifluoromethyl-pyrazolo[1,5-a]pyrimidin-3-ylethynyl]-thiophene-2-sulfonic acid tert-butylamide] | 244
9 | NS(=O)(=O)c1cc(C#Cc2cnn3c(C(F)(F)F)cc(-c4cccc(C(F)(F)F)c4)nc23)c(F)cc1F [Example 116, 2,4-Difluoro-5-[7-trifluoromethyl-5-(3-trifluoromethyl-phenyl)-pyrazolo[1,5-a]pyrimidin-3-ylethynyl]-benzenesulfonamide] | 264
10 | CC(C)(C)NS(=O)(=O)c1ccc(C#Cc2cnn3c(C(F)(F)F)cc(-c4cccc(C(F)(F)F)c4)nc23)s1 [Example 117, 5-[7-Trifluoromethyl-5-(3-trifluoromethyl-phenyl)-pyrazolo[1,5-a]pyrimidin-3-ylethynyl]-thiophene-2-sulfonic acid tert-butylamide] | 168
11 | NS(=O)(=O)c1cccc(C#Cc2cnn3c(C(F)(F)F)cc(-c4cccc(C(F)(F)F)c4)nc23)c1 [Example 118, 3-[7-Trifluoromethyl-5-(3-trifluoromethyl-phenyl)-pyrazolo[1,5-a]pyrimidin-3-ylethynyl]-benzenesulfonamide] | 193
12 | NS(=O)(=O)c1ccc(C#Cc2cnn3c(C(F)(F)F)cc(-c4cccc(C(F)(F)F)c4)nc23)s1 [Example 119, 5-[7-Trifluoromethyl-5-(3-trifluoromethyl-phenyl)-pyrazolo[1,5-a]pyrimidin-3-ylethynyl]-thiophene-2-sulfonic acid amide] | 250

Further lines, results first:

Row | melting point [°C] | Compound
13 | 226 | CC(C)(C)NS(=O)(=O)c1ccc(C#Cc2cnn3c(C(F)(F)F)cc(-c4ccc(C(F)(F)F)cc4)nc23)s1 [Example 109, 5-[7-Trifluoromethyl-5-(4-trifluoromethyl-phenyl)-pyrazolo[1,5-a]pyrimidin-3-ylethynyl]-thiophene-2-sulfonic acid tert-butylamide]
14 | 264 | NS(=O)(=O)c1ccc(C#Cc2cnn3c(C(F)(F)F)cc(-c4cccc(C(F)(F)F)c4)nc23)cc1 [Example 113, 4-[7-Trifluoromethyl-5-(3-trifluoromethyl-phenyl)-pyrazolo[1,5-a]pyrimidin-3-ylethynyl]-benzenesulfonamide]
15 | 272 | CC(C)(CO)NS(=O)(=O)c1ccc(C#Cc2cnn3c(C(F)(F)F)cc(-c4ccc(C(F)(F)F)cc4)nc23)s1 [Example 120, 5-[7-Trifluoromethyl-5-(4-trifluoromethyl-phenyl)-pyrazolo[1,5-a]pyrimidin-3-ylethynyl]-thiophene-2-sulfonic acid (2-hydroxy-1,1-dimethyl-ethyl)-amide]
16 | 226 to 227 | CN(C)S(=O)(=O)c1ccc(C#Cc2cnn3c(C(F)(F)F)cc(-c4ccc(C(F)(F)F)cc4)nc23)cc1 [Example 121, N,N-Dimethyl-4-[7-trifluoromethyl-5-(4-trifluoromethyl-phenyl)-pyrazolo[1,5-a]pyrimidin-3-ylethynyl]-benzenesulfonamide]
17 | 229 to 231 | O=S(=O)(c1ccc(C#Cc2cnn3c(C(F)(F)F)cc(-c4ccc(C(F)(F)F)cc4)nc23)cc1)N1CCOCC1 [Example 122, 3-[4-(Morpholine-4-sulfonyl)-phenylethynyl]-7-trifluoromethyl-5-(4-trifluoromethyl-phenyl)-pyrazolo[1,5-a]pyrimidine]
18 | 231 to 233 | CNS(=O)(=O)c1ccc(C#Cc2cnn3c(C(F)(F)F)cc(-c4ccc(C(F)(F)F)cc4)nc23)cc1 [Example 123, N-Methyl-4-[7-trifluoromethyl-5-(4-trifluoromethyl-phenyl)-pyrazolo[1,5-a]pyrimidin-3-ylethynyl]-benzenesulfonamide]
19 | 185 to 187 | COCCNS(=O)(=O)c1ccc(C#Cc2cnn3c(C(F)(F)F)cc(-c4ccc(C(F)(F)F)cc4)nc23)cc1 [Example 124, N-(2-Methoxy-ethyl)-4-[7-trifluoromethyl-5-(4-trifluoromethyl-phenyl)-pyrazolo[1,5-a]pyrimidin-3-ylethynyl]-benzenesulfonamide]
20 | 206 to 208 | O=S(=O)(NCCO)c1ccc(C#Cc2cnn3c(C(F)(F)F)cc(-c4ccc(C(F)(F)F)cc4)nc23)cc1 [Example 125, N-(2-Hydroxy-ethyl)-4-[7-trifluoromethyl-5-(4-trifluoromethyl-phenyl)-pyrazolo[1,5-a]pyrimidin-3-ylethynyl]-benzenesulfonamide]
21 | 193 to 194 | CN(C)CCNS(=O)(=O)c1ccc(C#Cc2cnn3c(C(F)(F)F)cc(-c4ccc(C(F)(F)F)cc4)nc23)cc1 [Example 126, N-(2-Dimethylamino-ethyl)-4-[7-trifluoromethyl-5-(4-trifluoromethyl-phenyl)-pyrazolo[1,5-a]pyrimidin-3-ylethynyl]-benzenesulfonamide]
